A short description of data set [1]: logP by HPLC on reversed-phase column (C 18), EEC Directive 79/831 Annex V.A8. It counts as physicochemical. The following applies: C 18, 40° C., 0.1% aqueous formic acid and acetonitrile; for chromatographic logP: reversed-phase HPLC column (C 18), read-out: logPa. The method, then:
Temperature: 40° C.; Mobile phases: 0.1% aqueous formic acid and acetonitrile; linear gradient from 10% acetonitrile to 90% acetonitrile.
Calibration was carried out using unbranched alkan-2-ones (comprising 3 to 16 carbon atoms) with known logP values (determination of the logP values by the retention times using linear interpolation between two successive alkanones).

The subject of data set [2] is Puccinia recondita f. Sp. tritici. Put plainly: In vivo preventive test on Puccinia recondita f. Sp. tritici (wheat brown rust). The following applies: topical, 240 h, 1000 ppm of active ingredient, evaluated 10 days after inoculation, read-out: efficacy. The method, then: In Vivo Preventive Test on Puccinia recondita f. Sp. tritici (Wheat Brown Rust)
(§1) To produce a suitable preparation of active compound, 1 part by weight of active compound is mixed with the stated amounts of solvent and emulsifier, and the concentrate is diluted with water to the desired concentration.
To test for preventive activity, young plants are […]. After the spray coating has dried on, the plants are sprayed with the preparation of active compound at the stated rate of application. The plants remain for 24 hours in an incubation cabinet at 20° C. and a relative atmospheric humidity of 100%.
The plants are placed in a greenhouse at a temperature of approximately 20° C. and a relative atmospheric humidity of approximately 80% to promote the development of rust pustules.
The test is evaluated 10 days after the inoculation. 0% means an efficacy which corresponds to that of the control, while an efficacy of 100% means that no disease is observed.

Data set [3] concerns Erysiphe graminis f.sp. hordei. Put plainly: In vivo preventive test on Erysiphe graminis (powdery mildew on barley). The following applies: Blumeria graminis, topical, 168 h, 1000 ppm of active ingredient, evaluated 7 days after inoculation, read-out: efficacy. The procedure: In Vivo Preventive Test on Erysiphe gramini (Powdery Mildew on Barley)
To produce a suitable preparation of active compound, 1 part by weight of active compound or active compound combination is mixed with the stated amounts of solvent and emulsifier, and the concentrate is diluted with water to the desired concentration.
To test for preventive activity, young plants are sprayed with the preparation of active compound or active compound combination at the stated rate of application.
After the spray coating has dried on, the plants are dusted with spores of Erysiphe graminis f.sp. hordei
The plants are placed in a greenhouse at a temperature of approximately 20° C. and a relative atmospheric humidity of approximately 80% to promote the development of mildew pustules.
(§2) The test is evaluated 7 days after the inoculation. 0% means an efficacy which corresponds to that of the control, while an efficacy of 100% means that no disease is observed.

For data set [4], the system named is Podosphaera leucotricha. Put plainly: In vivo protective test on Podosphaera leucotricha (apples). To be noted: topical, 240 h, 100 ppm of active ingredient, evaluated 10 days after inoculation, read-out: efficacy. An excerpt: In Vivo Protective Test on Podosphaera leucotricha (Apples) [table] […] To test for protective activity, young plants are sprayed with the preparation of active compound at the stated rate of application. After the spray coating has dried on, the plants are inoculated with an aqueous spore suspension of the causal agent of apple mildew (Podosphaera leucotricha).

Data set [5] relates to Sphaerotheca fuliginea. Briefly: In vivo protective test on Sphaerotheca fuliginea (cucumbers). The following applies: Podosphaera fuliginea, topical, 168 h, 100 ppm of active ingredient, evaluated 7 days after inoculation, read-out: efficacy. The method, then:
In Vivo Protective Test on Sahaerotheca fuliginea (Cucumbers)
as §1
To test for protect activity, young plants are sprayed with the preparation of active compound at the stated rate of application. After the spray coating has dried on, the plants are inoculated with an aqueous spore suspension of Sphaerotheca fuliginea. The plants are then placed in a greenhouse at approximately 23° C. and a relative atmospheric humidity of approximately 70%.
as §2

In data set [6] the test system is Alternaria solani. Put plainly: In vivo protective test on Alternaria solani (leaf spot of tomato). The following applies: topical, 168 h, 500 ppm of active ingredient, evaluated 7 days after inoculation, read-out: efficacy. The method, then: In Vivo Protective Test on Alternaria solani (Leaf Spot of Tomato)
as §1
To test for protective activity, young plants are sprayed with the preparation of active compound at the stated rate of application. After the spray coating has dried on, the plants are inoculated with an aqueous spore suspension of Alternatia solani. The plants remain for one day in an incubation cabinet at approximately 20° C. and a relative atmospheric humidity of 100%. Then the plants are placed in an incubation cabinet at approximately 20° C. and a relative atmospheric humidity of 96%.
The test is evaluated 7 days after the inoculation. 0% means an efficacy which corresponds to that of the control while an efficacy of 100% means that no disease is observed.

In data set [1], `Cc1cc(Oc2cc(Cl)c(/N=C/N3CCCCC3C)cc2C)ccc1Cl` (racemic) [Example 52] registered a logPa of 2.80.

In turn, `Cc1cc(/N=C/N2CCCCC2C)c(Cl)cc1Oc1ccc(Cl)c(C(C)(C)C)c1` (racemic) [Example 54] registered a logPa in data set [1] of 3.33.

Take `Cc1cc(/N=C/N2CCCCC2C)c(Cl)cc1Oc1ccc(Cl)c(C(C)C)c1` (racemic) [Example 62]: in data set [1], the logPa is 3.07.

With `CCN(C)/C=N/c1cc(C)c(Oc2ccc(Cl)c(C)c2)cc1C` [Example 4], the chromatographic logP in data set [1] is 2.31.

Take `Cc1cc(Oc2ccc(Cl)c(C(C)(C)C)c2)c(C)cc1/N=C/N(C)C1CC1` [Example 7]: the logPa in data set [1] was found to be 2.21.

As for `CCCN(C)/C=N/c1cc(Cl)c(Oc2ccc(Cl)c(CC)c2)cc1C` [Example 11], in data set [1], the chromatographic logP was 2.84. In addition, the pest or weed control at 1000 ppm in data set [2] and in data set [3] was no less than 70% in each case. In addition, the pest or weed control at 100 ppm in data set [4] and in data set [5] was no less than 70% each time.

In turn, `CCc1cc(Oc2cc(C)c(/N=C/N(C)C3CC3)cc2Cl)ccc1Cl` [Example 12] had a logPa in data set [1] of 2.89.

`CCc1cc(Oc2cc(C)c(/N=C/N(C)C3CC3)cc2C)ccc1Cl` [Example 15] displayed a logPa in data set [1] of 2.71.

In the case of `Cc1cc(Oc2cc(C)c(/N=C/N(C)C(C)C)cc2C)ccc1Cl` [Example 16], in data set [1], the chromatographic logP is 2.4. The pest or weed control at 1000 ppm in data set [2] and in data set [3] was no less than 70% each time. The pest or weed control at 500 ppm in data set [6] was no less than 70%. Also, in data set [4], the pest or weed control at 100 ppm is no less than 70%.

In turn, `Cc1cc(Oc2ccc(Cl)c(C(C)C)c2)c(Cl)cc1/N=C/N(C)C1CC1` [Example 23] came in with a logPa in data set [1] of 2.96.

`Cc1cc(Oc2ccc(Cl)c(C(C)(C)C)c2)c(Cl)cc1/N=C/N(C)C1CC1` [Example 24] came in with a logPa in data set [1] of 3.24.

For `CCCN(C)/C=N/c1cc(C)c(Oc2ccc(Cl)c(C(C)C)c2)cc1C` [Example 27], the chromatographic logP in data set [1] worked out at 3. In addition, the pest or weed control at 1000 ppm in data set [2] and in data set [3] was no less than 70% throughout. Further, the pest or weed control at 100 ppm in data set [4] and in data set [5] was no less than 70% in each case.

As to `CCN(C)/C(S)=N/c1cc(C)c(Oc2ccc(Cl)c(C(C)C)c2)cc1C` [Example 29], the chromatographic logP in data set [1] was found to be 4.81. In addition, the pest or weed control at 1000 ppm in data set [2] was no less than 70%. In addition, the pest or weed control at 100 ppm in data set [4] and in data set [5] was no less than 70% each time.

Take `Cc1cc(Oc2ccc(Br)c(C(C)C)c2)c(Cl)cc1/N=C/N(C)C1CC1` [Example 31]: in data set [1], the logPa is listed as 3.98.

As to `Cc1cc(Oc2ccc(Br)c(C(C)C)c2)c(Cl)cc1/N=C/N(C)C(C)C` [Example 33], in data set [1], the chromatographic logP was 3.21.

Turning to `CCCN(C)/C=N/c1cc(Cl)c(Oc2ccc(Br)c(C(C)C)c2)cc1C` [Example 34], the chromatographic logP in data set [1] turned out to be 2.91. For the same compound, the pest or weed control at 1000 ppm in data set [2] and in data set [3] was no less than 70% each time. For the same compound, the pest or weed control at 100 ppm in data set [4] and in data set [5] was no less than 70% throughout.

For the compound `CCN(C)/C(S)=N/c1cc(C)c(Oc2ccc(Cl)c(C(C)(C)C)c2)cc1C` [Example 35], the logPa in data set [1] was 5.44. Also, the pest or weed control at 1000 ppm in data set [2] is no less than 70%.

As to `Cc1cc(Oc2ccc(Cl)c(C(C)(C)C)c2)c(Cl)cc1/N=C/N1CCCCC1` [Example 36], in data set [1], the logPa amounted to 3.11.

`CCc1cc(Oc2cc(C)c(/N=C/N3CCCCC3)cc2Cl)ccc1Cl` [Example 37] yielded a logPa in data set [1] of 2.74.

As for `CCN(C)/C=N/c1cc(C#N)c(Oc2ccc(Cl)c(C(C)C)c2)cc1C` [Example 38], the chromatographic logP in data set [1] worked out at 2.45. Moreover, the pest or weed control at 1000 ppm in data set [2] and in data set [3] was no less than 70% in each case.

Consider `Cc1cc(/N=C/N(C)C(C)C)c(Cl)cc1Oc1ccc(Cl)c(C(C)(C)C)c1` [Example 39], for which, in data set [1], the chromatographic logP was found to be 3.01. Also, the pest or weed control at 1000 ppm in data set [2] and in data set [3] was no less than 70% throughout. The pest or weed control at 100 ppm in data set [5] is no less than 70%.

`CCC(C)N(C)/C=N/c1cc(C)c(Oc2ccc(Cl)c(C(C)(C)C)c2)cc1C` (stereo not shown) [Example 40]: in data set [1], the chromatographic logP amounted to 3.2. The pest or weed control at 1000 ppm in data set [2] was no less than 70%. The pest or weed control at 100 ppm in data set [5] is no less than 70%.

`CCC(C)N(C)/C=N/c1cc(C)c(Oc2ccc(Cl)c(C(C)C)c2)cc1C` (stereo not shown) [Example 41]: in data set [1], the chromatographic logP was 2.98. In addition, in data set [2], the pest or weed control at 1000 ppm was no less than 70%. Moreover, the pest or weed control at 100 ppm in data set [5] was no less than 70%.

Take `CCC(C)N(C)/C=N/c1cc(Cl)c(Oc2ccc(Cl)c(C(C)C)c2)cc1C` (stereo not shown) [Example 42]: the chromatographic logP in data set [1] came to 2.9. The pest or weed control at 1000 ppm in data set [2] is no less than 70%.

Take `CCC(C)N(C)/C=N/c1cc(Cl)c(Oc2ccc(Cl)c(C(C)(C)C)c2)cc1C` (stereo not shown) [Example 43]: the chromatographic logP in data set [1] turned out to be 3.19.

For `Cc1cc(Oc2cc(C)c(/N=C/N(C)C(C)C)cc2C)ccc1F` [Example 44], in data set [1], the chromatographic logP amounted to 2.29. Besides, the pest or weed control at 1000 ppm in data set [2] was no less than 70%. Also, the pest or weed control at 100 ppm in data set [5] was no less than 70%.

Consider `Cc1cc(Oc2ccc(Cl)c(C(C)(C)C)c2)c(C)cc1/N=C/N1CCCCC1` [Example 45], for which, in data set [1], the logPa came out at 3.02.

For the compound `CCN(C)/C=N/c1cc(C)c(Oc2ccc(Cl)c(CC(C)(C)C)c2)cc1C` [Example 46], in data set [1], the logPa was determined as 3.11.

Turning to `CCN(C)/C=N/c1cc(C)c(Oc2ccc(Cl)c(C[Si](C)(C)C)c2)cc1C` [Example 47], in data set [1], the logPa came out at 3.01.

In data set [1], `CCN(C)/C=N/c1cc(C)c(Oc2ccc(Cl)c(C3CCCCC3)c2)cc1C` [Example 48] had a logPa of 3.18.

In the case of `CCN(C)/C=N/c1cc(C)c(Oc2ccc(Cl)c(C)c2)cc1Cl` [Example 49], in data set [1], the chromatographic logP was 2.39.

`Cc1cc(Oc2cc(Cl)c(/N=C/N(C)C(C)C)cc2C)ccc1Cl` [Example 50]: the chromatographic logP in data set [1] came out at 2.48.

Turning to `Cc1cc(Oc2cc(Cl)c(/N=C/N3CCCCC3)cc2C)ccc1Cl` [Example 51], the logPa in data set [1] turned out to be 2.58.

`Cc1cc(/N=C/N2CCCCC2)c(Cl)cc1Oc1ccc(Cl)c(C(C)(C)C)c1` [Example 53] yielded a logPa in data set [1] of 3.25.

As for `CCCCc1cc(Oc2cc(C)c(/N=C/N(C)CC)cc2C)ccc1Cl` [Example 55], the chromatographic logP in data set [1] worked out at 2.95. Also, the pest or weed control at 1000 ppm in data set [2] was no less than 70%.

With `CCN(C)/C=N/c1cc(C)c(Oc2ccc(Cl)c(CC(C)C)c2)cc1C` [Example 56], the chromatographic logP in data set [1] came to 2.92. Besides, in data set [2], the pest or weed control at 1000 ppm is no less than 70%.

For the compound `CCN(C)/C=N/c1cc(C)c(Oc2ccc(Cl)c(C(C)(C)OC)c2)cc1C` [Example 57], the logPa in data set [1] stood at 2.26.

On to `CCN(C)/C=N/c1cc(C)c(Oc2ccc(Cl)c(C(C)C)c2)cc1Cl` [Example 60], for which the chromatographic logP in data set [1] was 2.78.

`Cc1cc(Oc2ccc(Cl)c(C(C)(C)C)c2)c(C)cc1/N=C/N1CCC(F)(F)CC1` [Example 61] returned a logPa in data set [1] of 3.25.

On to `CCN(C)/C=N/c1cc(Br)c(Oc2ccc(Cl)c(C(C)(C)C)c2)cc1C` [Example 63], for which the chromatographic logP in data set [1] stood at 2.67.

Take `CCN(C)/C=N/c1cc(C)c(Oc2ccc(Cl)c(C3CCCC3)c2)cc1C` [Example 64]: in data set [1], the logPa is recorded as 3.28.

As for `Cc1cc(Oc2ccc(Cl)c(CC(C)(C)C)c2)c(C)cc1/N=C/N1CCCCC1` [Example 65], the logPa in data set [1] stood at 3.19.
